Source: ChEMBL document CHEMBL5303304, “EUbOPEN Chemogenomics Library - IncuCyte” (2023)

Assays:
Format in all cases: toxicity, cell-based
[1] = test system: U2OS; experiment: Incucyte cell viability with U2OS; settings: human, 10 µM, compound concentration 10 uM
[2] = test system: HEK-293T; experiment: Incucyte cell viability with HEK293T; settings: human, 10 µM, compound concentration 10 uM
[3] = test system: Fibroblast; experiment: Incucyte cell viability with human fibroblast; settings: 10 µM, compound concentration 10 uM
Note: unitless GR value; below 1 slowed growth and below 0 cell loss.

Compound | Growth Rate ([1]; 6 h, replicate number 2) | Growth Rate ([1]; 12 h, replicate number 1) | Growth Rate ([1]; 12 h, replicate number 2) | Growth Rate ([1]; 18 h, replicate number 1) | Growth Rate ([1]; 18 h, replicate number 2) | Growth Rate ([1]; 24 h, replicate number 1) | Growth Rate ([1]; 24 h, replicate number 2) | Growth Rate ([2]; 0 h, replicate number 2) | Growth Rate ([2]; 6 h, replicate number 1) | Growth Rate ([2]; 18 h, replicate number 1) | Growth Rate ([2]; 24 h, replicate number 1) | Growth Rate ([2]; 24 h, replicate number 2) | Growth Rate ([3]; 0 h, replicate number 1) | Growth Rate ([3]; 12 h, replicate number 2) | Growth Rate ([1]; 6 h, replicate number 1) | Growth Rate ([2]; 12 h, replicate number 2) | Growth Rate ([2]; 18 h, replicate number 2) | Growth Rate ([3]; 6 h, replicate number 2) | Growth Rate ([3]; 18 h, replicate number 2) | Growth Rate ([3]; 24 h, replicate number 2) | also measured
Cc1cc(OC2CCS(=O)(=O)CC2)cc(C)c1-c1cccc(COc2ccc(CCC(=O)O)c(F)c2)c1 | 0.78 | 0.88 | 0.91 | 0.96 | 0.99 | 0.92 | 0.87 | 0.14 | 0.99 | 0.99 | 0.94 | 0.96 | -0.63 | 0.88 | – | – | – | – | – | – | Growth Rate ([3]; 0 h, replicate number 2): 0; Growth Rate ([3]; 12 h, replicate number 1): 0.64; Growth Rate ([3]; 18 h, replicate number 1): 0.84
CC(C)c1cnc(NC(=O)Cc2ccccc2)s1 | – | 0.87 | 0.72 | 0.77 | 0.97 | 0.89 | 0.77 | 1 | 0.76 | 0.8 | 0.73 | 0.69 | -0.99 | – | 0.54 | 0.69 | 0.68 | 0.95 | 1 | 0.99 | Growth Rate ([1]; 0 h, replicate number 2): 0.72; Growth Rate ([2]; 6 h, replicate number 2): 0.51; Growth Rate ([2]; 12 h, replicate number 1): 0.86; Growth Rate ([3]; 24 h, replicate number 1): 0.92
COc1c(-c2cn(C3CCC(=O)NC3=O)nn2)csc1C(=O)N1CCCC1 (centres undefined) | – | 0.85 | – | 0.92 | – | – | – | 0.78 | 0.29 | 0.73 | 0.9 | 1 | -1 | – | 0.89 | 0.89 | 0.9 | 0.73 | 0.92 | 0.97 | Growth Rate ([2]; 6 h, replicate number 2): 0.71; Growth Rate ([2]; 12 h, replicate number 1): 0.77
Cc1cn([C@@H](C)CC#N)c(=O)c2cc(Cn3nc(C(F)F)cc3Cl)nn12 | – | 0.51 | 0.71 | 0.6 | 0.88 | 0.73 | 0.78 | 0.77 | 0.53 | 0.89 | 0.92 | 0.81 | – | 0.66 | 0.19 | 0.81 | 0.77 | 0.71 | 0.99 | – | Growth Rate ([2]; 6 h, replicate number 2): 0.84; Growth Rate ([2]; 12 h, replicate number 1): 0.72; Growth Rate ([3]; 24 h, replicate number 1): 0.85
Cc1cc(OC2CCS(=O)(=O)CC2)cc(C)c1-c1cccc(COc2ccc(C(=O)O)c(F)c2)c1 | 0.65 | 0.61 | 0.49 | 0.85 | 0.77 | 0.98 | 0.75 | 0.65 | – | 0.96 | 0.9 | 0.84 | -0.85 | 0.57 | 0.56 | 0.96 | 0.88 | – | – | 0.92 | Growth Rate ([1]; 0 h, replicate number 2): 0.93; Growth Rate ([3]; 6 h, replicate number 1): 0.86
COc1ccc(CC[C@@H](OC(=O)[C@H]2CCCCN2C(=O)[C@@H](c2cc(OC)c(OC)c(OC)c2)C2CCCCC2)c2cccc(OCCN3CCOCC3)c2)cc1OC | -0.94 | – | – | 0.98 | 0.99 | – | 0.87 | -0.05 | – | – | 0.74 | 0.49 | -0.89 | – | – | 0.72 | 0.52 | – | – | – | Growth Rate ([1]; 0 h, replicate number 2): -1; Growth Rate ([3]; 24 h, replicate number 1): 0.99
N#Cc1ccc(COc2ccc(Br)cc2CNCCO)cn1.O=CO | – | 1 | – | – | – | – | – | 0.83 | – | 1 | – | – | – | 0.87 | – | – | – | 0.73 | 0.6 | 0.89 | Growth Rate ([3]; 12 h, replicate number 1): 0.85
